Where “and” joins values, the source holds several entries; their conditions need not be identical. Equal entries are not always repeated. Where two headings read alike, the source gives them in different places. Marks after values point to notes of the source that are not given here.
Assays:
[1] = system: trophozoites of Entamoeba histolytica HM1:IMSS strain; assay: Amoebicidal (antiproliferative) activity on trophozoite cultures, viability by trypan blue / CFDA-propidium iodide; format: cell-based; settings: for increase in the amoebicidal activity: compared with the parent compound 3a
Experimental: Trophozoites of the E. histolytica HM1:IMSS strain were axenically grown by placing 1 × 10^5 live trophozoites in tubes with 3 mL of supplemented TYI-S33 medium. Amoebic trophozoite viability exposed to 1000, 100, 10, 1, 0.1, and 0.01 μM of each experimental compound was determined at 24, 48, and 72 h with trypan blue vital marker and confirmed with the fluorescent dyes carboxyfluorescein diacetate (CFDA) and propidium iodide. Either 100 μL of Trypan blue 0.4% or 1 μL of 5 μM CFDA (Invitrogen Molecular Probes, Inc., Eugene, OR, USA) and 1 μL of 1.5 μM propidium iodide were added to samples of 100 μL containing around 1 × 10^4 treated trophozoites, mixed, and incubated at room temperature for 15 min. The final solutions were mixed and incubated at room temperature for 15 min to perform the counting with an Olympus BX51 fluorescence microscope. The IC50 values were calculated by a multivariable regression using the amoebic viability curves for the tree times evaluated on GraphPad Prism 10.0.

[2] = RP-TLC, methanol/water 80:20; standard deviation in parentheses, three determinations
[3] = set-up: method as in doi:10.1016/j.jorganchem.2017.05.002; settings: cited from earlier work
[4] = cited from earlier work
amoeba trophozoites = system: amoeba trophozoites; set-up: method as in PMID 27863300; settings: cited from earlier work
[5] = Electrochemical measurements (voltammetry) of redox potentials in acetonitrile; format: physicochemical; settings: TBATFB 0.1 M; for E(I) half-wave redox potential / E(II) half-wave redox potential: vs. Fc/Fc+
Experimental: Two oxidation (Ia, IIa) and two reduction (Ic, IIc) processes with half-wave potential values E(I) = −0.022 V and E(II) = 0.164 V were observed. The electronic communication between both Ferrocene units was evaluated using the ΔE(II–I) to calculate the comproportionation constant (Kcom). According to the Kcom value 1563, the mixed-valence compound is a Class II compound in the Robin–Day classification with slight electronic delocalization between the two redox centers. This slight communication between iron ions allows the identification of two independent and sequential redox processes. It confirms the absence of chemical or adsorption processes associated with redox transformation (Figure 1b). Similar results were found for compound 3e (Table 1). The relationship between redox potential values found for compounds 3a–e follows the equation EII(V) = 1.01EI(V) + 0.1897 (R^2 = 0.9894, F = 280.7, Figure 2a).
Individual diferrocenylvinyloxazolines 3a–e (Figure 6) were isolated using Al2O3 column chromatography (activity grade III, elution with hexane-ether 4:1). In the solid state, fine crystalline substances of orange color represent them. The E and Z […] could be separated by a chromatographic column. In this work, only Z-enantiomers were employed, as described in the compound characterization. The structures of compounds 3a–e were determined based on mass spectrometry, FT-IR, ^1H, and ^13C NMR spectroscopy, and elemental analysis. UV–vis spectra of 3a–e were acquired using acetonitrile solutions at different concentrations in a Genesis 30 Spectrophotometer (Thermo Scientific, Waltham, MA, USA) from 325 to 1100 nm. Electrochemical measurements for compounds 3c and 3e were performed using conditions reported previously. Briefly, acetonitrile solutions at different concentrations of the compound with tetrabutylammonium tetrafluoroborate (TBATFB) 0.1M as a supporting electrolyte, platinum disk as a working electrode, and Ag/AgNO3 as a reference in a potentiostat/galvanostat (EG&G PAR 273). The scan rate was 0.1 V/s, from open circuit potential to positive direction. Bubbling N2 deoxygenated the working solution before each measurement.

[6] = E. histolytica HM1:IMSS trophozoites, viability curves at 24, 48 and 72 h, read-out: IC50
[7] = logarithmic units of IC50 in µM

Compound	IC50 [1, 6] [µM]	−log (1/IC50) [1, 7]	logP [2]	E(I) redox potential ([3]; acetonitrile, vs. Fc/Fc+)	E(II) redox potential ([3]; acetonitrile, vs. Fc/Fc+)	E(I) redox potential [3] [mV]	E(II) redox potential [3] [mV]	increase in the amoebicidal activity [1]	also measured
2-(Z-2,3-diferrocenylvinyl)-4,5-dihydrooxazole [Compound 3a]	1000 ± 46	3	4.42 (0.2)	0.116 V and 0.116 ^a V	0.305 V and 0.305 ^a V	116	305	–	–
C(=C(/C1=NCCS1)[c-]1cccc1)/[c-]1cccc1.[Fe+2].[Fe+2].c1cc[cH-]c1.c1cc[cH-]c1 [2-(Z-1,2-diferrocenylvinyl)-4,5-dihydro-1,3-thiazole]	–	–	–	–	–	–	–	–	E(I) redox potential [4]: 0.251 V; E(II) redox potential [4]: 0.408 V
C(=C(/C1=NCCN1)[c-]1cccc1)/[c-]1cccc1.[Fe+2].[Fe+2].c1cc[cH-]c1.c1cc[cH-]c1 [2-(Z-1,2-diferrocenylvinyl)-imidazoline]	–	–	–	–	–	–	–	–	E(I) redox potential [4]: 0.250 V; E(II) redox potential [4]: 0.437 V
COc1cc2c(c(OC)c1OC)CCC1C2=Nc2ccccc2SC1[c-]1cccc1.[Fe+2].c1cc[cH-]c1 (centres unmarked) [(2,3,4-trimethoxy-5,6,6a,7-tetrahydrobenzo[b]naphtho [1,2-e][1,4]thiazepin-7-yl)ferrocene]	–	–	–	–	–	–	–	–	IC50 (amoeba trophozoites): 12.6 µM; redox potential [4]: +0.042 V
[Fe+2].c1cc[cH-]c1.c1ccc2c(c1)CCC1C2=Nc2ccccc2SC1[c-]1cccc1 (centres unmarked) [(5,6,6a,7-tetrahydrobenzo[b]naphtho [1,2-e][1,4]thiazepin-7-yl)ferrocene]	–	–	–	–	–	–	–	–	IC50 (amoeba trophozoites): 7.5 µM; redox potential [4]: +0.005 V
CC1COC(/C(=C\[c-]2cccc2)[c-]2cccc2)=N1.[Fe+2].[Fe+2].c1cc[cH-]c1.c1cc[cH-]c1 (centres unmarked) [Compound 3b, 2-(Z-1,2-diferrocenylvinyl)-4-methyl-4,5-dihydrooxazole]	100 ± 9	2	4.76 (0.1)	−0.019 ^a V	0.182 ^a V	−19	182	10 fold	–
CC(C)C1COC(/C(=C\[c-]2cccc2)[c-]2cccc2)=N1.[Fe+2].[Fe+2].c1cc[cH-]c1.c1cc[cH-]c1 (centres unmarked) [Compound 3c, 2-(Z-1,2-diferrocenylvinyl)-4-isopropyl-4,5-dihydrooxazole]	1890	–	5.48 (0.1)	–	–	–	–	–	E(I) redox potential [5]: −22 mV; E(II) redox potential [5]: 167 mV; E(I) half-wave redox potential [5]: −0.022 V; E(II) half-wave redox potential [5]: 0.167 V
C(=C(/C1=NC(c2ccccc2)CO1)[c-]1cccc1)/[c-]1cccc1.[Fe+2].[Fe+2].c1cc[cH-]c1.c1cc[cH-]c1 (centres unmarked) [Compound 3d, 2-(Z-1,2-diferrocenylvinyl)-4-phenyl-4,5-dihydrooxazole]	23 ± 3	1.36	5.62 (0.2)	−0.045 ^a V	0.135 ^a V	−45	135	more than 40 fold	–
C(=C(/C1=NC(Cc2ccccc2)CO1)[c-]1cccc1)/[c-]1cccc1.[Fe+2].[Fe+2].c1cc[cH-]c1.c1cc[cH-]c1 (centres unmarked) [Compound 3e, 2-(Z-1,2-diferrocenylvinyl)-4-benzyl-4,5-dihydrooxazole]	385 ± 11	2.58	6.1 (0.09)	–	–	–	–	2.5 fold	E(I) redox potential [5]: −65 mV; E(II) redox potential [5]: 124 mV; E(I) half-wave redox potential [5]: −0.065 V; E(II) half-wave redox potential [5]: 0.124 V
Cc1ncc([N+](=O)[O-])n1CCO [Metronidazole, reference compound]	–	–	–	–	–	–	–	–	IC50 ([1]; Entamoeba histolytica, E. histolytica HM1:IMSS trophozoites, viability curves at 24, 48 and 72 h, read-out: IC50): 7 ± 0.9 µM; IC50 ([1]; Entamoeba histolytica, logarithmic units of IC50 in µM, read-out: −log (1/IC50) (converted)): 6.92 µM

— article PMC10458203, “The Amoebicidal Activity of Diferrocenyl Derivatives: A Significant Dependence on the Electronic Environment” (Molecules, 2023)
